Source: US9044427B2, “Compositions and methods for prevention and treatment of wounds” (ONCONOVA THERAPEUTICS, INC, priority 2010, dated 2015)
“And” between values parts separate entries of the source, which are not always exact repeats. Equal entries are not always repeated. “Also recorded” adds a separate entry of the source. Marks after values point to notes of the source that are not given here.

Tested on: mouse model of cutaneous injury
Experiment: Wound healing in skin, mouse model of cutaneous injury (skin punch)
Type: in vivo
Conditions: for CT50 (Days), wound half-closure time, Mean: linear regression
Protocol: Test substance ON 01210.Na Solution was evaluated for possible effects on wound healing in a mouse model of cutaneous injury. The test substance was administered subcutaneously (SC) in two dosing regimens: the first was 24 hours and 15 minutes before skin punch, and the second was 4 hours and 15 minutes before skin punch. Percent closure of the wound (%) was determined on days 1, 3, 5, 7, 9, 11, 13, 15, 17, 19, 21 and 22, and the half closure time (CT50) was then obtained. One-way ANOVA followed by Dunnett's test was used to determine significant difference between vehicle control and treated groups at individual time points. Significant differences are considered at P<0.05 level.
ON 01210.Na Solution was provided by Onconova Therapeutics Inc in a preformulated form. Test substance was administered subcutaneously (SC) in two dosing patterns, the first was 24 hours and 15 minutes before skin punch, and the second was 4 hours and 15 minutes before skin punch. The dosing time of vehicle (ON 01210.Na Placebo Solution) was given as the second pattern. The dosing volume was 10 mL/kg.
Animals: Male ICR mice weighing 24±2 g were provided by BioLasco Taiwan (under Charles River Laboratories Technology Licensee). Test animals were housed individually in a cage (29×18×13 cm) after skin injury through experiment. All animals were maintained in a controlled temperature (21-23° C.) and humidity (50%-70%) environment with 12 hours light/dark cycles for at least three days in MDS Pharma Services—Taiwan Laboratory prior to use. Free access to standard lab chow for Mice [MF-18 (Oriental Yeast Co., Ltd., Japan)] and reverse osmosis (RO) water was granted. All aspects of this work including housing, experimentation and disposal of animals were performed in general accordance with the Guide for the Care and Use of Laboratory Animals (National Academy Press, Washington, D.C., 1996).
Groups of 8 ICR male mice weighing 24±2 g were used. During the study, the tested animals were housed in individual cages. Under hexobarbital (90 mg/kg, IP) anesthesia, the shoulder and back region of each animal was shaved. A sharp punch (ID 12 mm) was applied to remove the skin including panniculus carnosus and adherent tissues. Test substance was administered subcutaneously in two dosing patterns, the first was 24 hours and 15 minutes before skin punch, and the second was 4 hours and 15 minutes before skin punch the dosing time of vehicle (ON 01210.Na Placebo Solution) was given as the second dosing pattern. The wound area, traced onto clear plastic sheets, was measured by use of an Image—ProPlus (Media Cybernetics, Version 4.5.0.29) on days 1, 3, 5, 7, 9, 11, 13, 15, 17, 19, 21 and 22. The percent closure of the wound (%) was calculated, and wound half-closure time (CT50) was analyzed by linear regression using Graph-Prism (Graph Software USA). One-way ANOVA followed by Dunnett's test was applied for comparison between the treated and vehicle groups at each measurement time point. Differences are considered statistically significant at P<0.05.
Test substance was administered subcutaneously (SC) in two dosing patterns, the first was 24 hours and 15 minutes before skin punch, and the second was 4 hours and 15 minutes before skin punch; the dosing time of vehicle (ON 01210.Na Placebo Solution) was given as the second pattern. The wound closure (%) and wound half-closure time (CT50) were determined. One-way ANOVA followed by Dunnett's test was applied for comparison between the treated and vehicle groups. *P<0.05, vs. vehicle control.

[1] = 500 mg/kg × 2 SC (−4 hr, −15 min), individual surviving mice N 1-6, sodium salt
[2] = 500 mg/kg × 2 SC (−4 hr, −15 min), individual surviving mice N 1-6
[3] = 500 mg/kg × 2 SC (−4 hr, −15 min before skin punch), mean of surviving animals, sodium salt
[4] = 500 mg/kg × 2 SC (−4 hr, −15 min before skin punch), mean of surviving animals
[5] = 500 mg/kg × 2 SC (−24 hr, −15 min), individual mice N 1-8
[6] = 500 mg/kg × 2 SC (−24 hr, −15 min), individual mice N 1-8, sodium salt
[7] = 500 mg/kg × 2 SC (−24 hr, −15 min before skin punch), group mean
[8] = 500 mg/kg × 2 SC (−24 hr, −15 min before skin punch), group mean, sodium salt

`O=C([O-])c1ccc(/C=C/S(=O)(=O)Cc2ccc(Cl)cc2)cc1.[Na+]` [ON 01210.Na Solution, (E)-4-carboxystyryl-4-chlorobenzylsulfone sodium salt] was tested, and the “Effect on wound closure vs vehicle control” value (500 mg/kg SC, 4 hr and 15 min before skin punch, surviving animals, P<0.05 vs vehicle) was “significant increase in wound closure on days 13 and 15”, the “Effect on wound closure / wound healing vs vehicle control” value (500 mg/kg SC, 24 hours and 15 minutes before skin punch, P<0.05 vs vehicle, sodium salt) was “promoted significant increase in wound closure on days 3, 5, 7, 13, 15 and 17; also recorded: promoted wound healing with significant reduction in CT50 value” and the “The Closure of Wound (%), Individual Value, Day 1” value (500 mg/kg × 2 SC (−4 hr, −15 min), individual mice N 1-8) was 0.0%. The “The Closure of Wound (%), Individual Value, Day 3” value [1] was 27.9% and 13.0% and 31.4% and 13.4% and 40.5% and 11.7%, the “The Closure of Wound (%), Individual Value, Day 5” value [1] was 40.2% and 23.3% and 37.2% and 24.9% and 48.5% and 18.4% and the “The Closure of Wound (%), Individual Value, Day 7” value [1] was 48.0% and 32.9% and 41.9% and 36.2% and 62.4% and 34.6%. The “The Closure of Wound (%), Individual Value, Day 9” value [1] was 59.0% and 49.2% and 60.3% and 52.9% and 76.3% and 43.0%, the “The Closure of Wound (%), Individual Value, Day 11” value [1] was 65.3% and 68.7% and 73.5% and 77.1% and 79.6% and 66.1% and the “The Closure of Wound (%), Individual Value, Day 13” value [1] was 84.2% and 90.4% and 90.3% and 78.8% and 93.1% and 88.0%. For the same compound, the “The Closure of Wound (%), Individual Value, Day 15” value [1] was 93.4% and 94.6% and 97.2% and 100.0% (2×) and 97.6%, the “The Closure of Wound (%), Individual Value, Day 17” value [1] was 96.7% and 100.0% (5×) and the “The Closure of Wound (%), Individual Value, Day 19” value [2] was 100.0%. The “The Closure of Wound (%), Individual Value, Day 21” value [2] was 100.0%, the “The Closure of Wound (%), Individual Value, Day 22” value [2] was 100.0% and the “CT50 (Days), Individual Value” [1] was 8.0 days and 9.2 days and 7.7 days and 8.9 days and 5.8 days and 9.4 days. The “Animal died (entry in individual wound-closure tables)” value (500 mg/kg × 2 SC (−4 hr, −15 min), mice N 7 and 8, Days 3-22, sodium salt) was “died and Died”, the “The Closure of Wound (%) Day 1, Mean” value (500 mg/kg × 2 SC (−4 hr, −15 min before skin punch), group mean) was 0.0% and the “The Closure of Wound (%) Day 3, Mean” value [3] was 23.0%. The “The Closure of Wound (%) Day 5, Mean” value [4] was 32.1%, the “The Closure of Wound (%) Day 7, Mean” value [4] was 42.7% and the “The Closure of Wound (%) Day 9, Mean” value [4] was 56.8%. The “The Closure of Wound (%) Day 11, Mean” value [4] was 71.7%, the “The Closure of Wound (%) Day 13, Mean” value [3] was 87.5% and the “The Closure of Wound (%) Day 15, Mean” value [3] was 97.1%. For the same compound, the “The Closure of Wound (%) Day 17, Mean” value [4] was 99.4%, the “The Closure of Wound (%) Day 19, Mean” value [4] was 100.0% and the “The Closure of Wound (%) Day 21, Mean” value [4] was 100.0%. For the same compound, the “The Closure of Wound (%) Day 22, Mean” value [4] was 100.0%, the “CT50 (Days), wound half-closure time, Mean” value [3] was 8.2 ± 0.5 days and 8.2 days and the “The Closure of Wound (%), Individual Value, Day 1” value [5] was 0.0%. The “The Closure of Wound (%), Individual Value, Day 3” value [6] was 36.8% and 15.2% and 28.2% and 23.1% and 21.6% and 42.8% and 29.4% and 41.1%, the “The Closure of Wound (%), Individual Value, Day 5” value [6] was 51.5% and 35.7% and 39.1% and 45.1% and 37.7% and 35.6% and 40.9% and 44.4% and the “The Closure of Wound (%), Individual Value, Day 7” value [6] was 49.7% and 47.0% and 45.6% and 56.9% and 46.8% and 60.4% and 52.0% and 55.8%. The “The Closure of Wound (%), Individual Value, Day 9” value [6] was 74.1% and 60.1% and 54.4% and 63.6% and 54.1% and 79.4% and 64.0% and 69.1%, the “The Closure of Wound (%), Individual Value, Day 11” value [6] was 79.5% and 81.7% and 70.4% and 76.3% and 64.4% and 84.4% and 71.4% and 80.8% and the “The Closure of Wound (%), Individual Value, Day 13” value [6] was 84.4% and 90.6% and 83.7% and 89.6% and 85.8% and 95.8% and 80.7% and 95.6%. The “The Closure of Wound (%), Individual Value, Day 15” value [6] was 89.8% and 100.0% (5×) and 97.6% and 88.8%, the “The Closure of Wound (%), Individual Value, Day 17” value [5] was 100.0% and the “The Closure of Wound (%), Individual Value, Day 19” value [5] was 100.0%. For the same compound, the “The Closure of Wound (%), Individual Value, Day 21” value [5] was 100.0%, the “The Closure of Wound (%), Individual Value, Day 22” value [6] was 100% (2×) and 100.0% (6×) and the “CT50 (Days), Individual Value” [6] was 6.6 Days and 8.0 Days (2×) and 7.2 Days and 8.3 Days and 6.0 Days and 7.6 Days and 6.2 Days. The “The Closure of Wound (%) Day 1, Mean” value [7] was 0.0%, the “The Closure of Wound (%) Day 3, Mean” value [8] was 29.8% and the “The Closure of Wound (%) Day 5, Mean” value [8] was 41.3%. For the same compound, the “The Closure of Wound (%) Day 7, Mean” value [8] was 51.8%, the “The Closure of Wound (%) Day 9, Mean” value [7] was 64.8% and the “The Closure of Wound (%) Day 11, Mean” value [7] was 76.1%. The “The Closure of Wound (%) Day 13, Mean” value [8] was 88.3%, the “The Closure of Wound (%) Day 15, Mean” value [8] was 97.0% and the “The Closure of Wound (%) Day 17, Mean” value [8] was 100.0%. The “The Closure of Wound (%) Day 19, Mean” value [7] was 100.0%, the “The Closure of Wound (%) Day 21, Mean” value [7] was 100.0% and the “The Closure of Wound (%) Day 22, Mean” value [7] was 100.0%. The “CT50 (Days), wound half-closure time, Mean” value [8] was 7.2 ± 0.3 days and 7.2 days, the “Animals died (mortality)” value (500 mg/kg × 2 SC given 4 hr and 15 min before skin punch (interval 3 hr 45 min), mice, cause of death not known, sodium salt) was “two out of eight animals died; also recorded: (2/8 died)” and the “Wound healing, percentage of wound closure (FIG. 1)” value (pre-treated 24 hour or 4 hour prior to wound vs placebo) was “significant improvement in wound healing”.
